Reference: patent US10442763B2, “EBNA1 inhibitors and methods using same” (priority 2015, dated 2019)

Molecular target: T1, His-EBNA1 (DNA binding domain of EBNA1, amino acids 459-607) (Epstein-Barr virus, UniProt P03211)
T1 construct: made in house; host or cells: E. coli
Test: Inhibition of 5'-biotin-oPL4624 binding to His-EBNA1 using Alpha Screen technology
Procedure, shortened: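 AlphaScreen with 15 nM E. coli-expressed His-EBNA1 (aa 459-607), 0.2 nM biotinylated oPL4624 DNA and 5 μg/mL donor and acceptor beads in 25 mM Tris pH 7.2, 160 mM NaCl, 1 mM MgCl2; compound 3.2 nM–100 μM final. Read after 2 h at RT; inhibition normalised to no-EBNA1 wells, one-site dose-response fit.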

T1 sequence (P03211 459-607): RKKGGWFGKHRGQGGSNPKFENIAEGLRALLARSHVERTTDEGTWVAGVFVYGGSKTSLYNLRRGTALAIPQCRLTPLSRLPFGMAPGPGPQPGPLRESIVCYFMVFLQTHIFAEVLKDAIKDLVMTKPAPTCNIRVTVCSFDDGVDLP

Row | Compound | IC50 [µM]
1 | O=C1CCC(C(=O)NCc2ccc(C#Cc3cccc(C(=O)O)c3-c3ccc4cc[nH]c4c3)cc2)CC1 [Entry 198] | < 1
2 | O=C1CCC(NC(=O)c2ccc(C#Cc3cccc(C(=O)O)c3-c3ccc4cc[nH]c4c3)cc2)CC1 [Entry 199] | < 1
3 | Nc1nc2c(s1)C[C@@H](NC(=O)c1ccc(C#Cc3cccc(C(=O)O)c3-c3ccc4cc[nH]c4c3)cc1)CC2 [Entry 200] | 1 to 10
4 | Nc1nc2c(s1)C[C@H](NC(=O)c1ccc(C#Cc3cccc(C(=O)O)c3-c3ccc4cc[nH]c4c3)cc1)CC2 [Entry 201] | 1 to 10
5 | CN1CCN(C(=O)c2ccc(C#Cc3cccc(C(=O)O)c3-c3ccc4cc[nH]c4c3)cc2)CC1 [Entry 202] | 10 to 100
6 | COC1CCN(C(=O)c2ccc(C#Cc3cccc(C(=O)O)c3-c3ccc4cc[nH]c4c3)cc2)CC1 [Entry 203] | 1 to 10
7 | CS(=O)(=O)N1CCN(Cc2ccc(C#Cc3cccc(C(=O)O)c3-c3ccc4cn[nH]c4c3)cc2)CC1 [Entry 204] | 10 to 100
8 | NS(=O)(=O)N1CCN(Cc2ccc(C#Cc3cccc(C(=O)O)c3-c3ccc4cc[nH]c4c3)cc2)CC1 [Entry 205] | 1 to 10
